According to ChEMBL document CHEMBL5154769, “Discovery of the First-in-Class Agonist-Based SOS1 PROTACs Effective in Human Cancer Cells Harboring Various KRAS Mutations” (J Med Chem, 2022):
Activity calls are given as the source filed them. The rule behind the calls is not given here.

Legend:
[1] = biological target: T1, von Hippel-Lindau disease tumor suppressor/Son of sevenless homolog 1 (Homo sapiens, UniProt Q07889+P40337); experiment: Protac activity at VHL/SOS1 in human NCI-H358 cells assessed as SOS1 protein degradation at 0.1 uM incubated for 24 hr by Western blot analysis relative to control; assay type: cell-based
Target sequence in this assay (P40337 whole entry, looked up): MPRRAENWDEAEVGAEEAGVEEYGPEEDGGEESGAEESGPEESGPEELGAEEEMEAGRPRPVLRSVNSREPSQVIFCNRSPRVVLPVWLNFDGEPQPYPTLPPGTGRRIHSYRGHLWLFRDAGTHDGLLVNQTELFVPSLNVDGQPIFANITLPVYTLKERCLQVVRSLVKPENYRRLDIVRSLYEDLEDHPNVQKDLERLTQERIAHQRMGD
Target sequence in this assay (Q07889 whole entry, looked up): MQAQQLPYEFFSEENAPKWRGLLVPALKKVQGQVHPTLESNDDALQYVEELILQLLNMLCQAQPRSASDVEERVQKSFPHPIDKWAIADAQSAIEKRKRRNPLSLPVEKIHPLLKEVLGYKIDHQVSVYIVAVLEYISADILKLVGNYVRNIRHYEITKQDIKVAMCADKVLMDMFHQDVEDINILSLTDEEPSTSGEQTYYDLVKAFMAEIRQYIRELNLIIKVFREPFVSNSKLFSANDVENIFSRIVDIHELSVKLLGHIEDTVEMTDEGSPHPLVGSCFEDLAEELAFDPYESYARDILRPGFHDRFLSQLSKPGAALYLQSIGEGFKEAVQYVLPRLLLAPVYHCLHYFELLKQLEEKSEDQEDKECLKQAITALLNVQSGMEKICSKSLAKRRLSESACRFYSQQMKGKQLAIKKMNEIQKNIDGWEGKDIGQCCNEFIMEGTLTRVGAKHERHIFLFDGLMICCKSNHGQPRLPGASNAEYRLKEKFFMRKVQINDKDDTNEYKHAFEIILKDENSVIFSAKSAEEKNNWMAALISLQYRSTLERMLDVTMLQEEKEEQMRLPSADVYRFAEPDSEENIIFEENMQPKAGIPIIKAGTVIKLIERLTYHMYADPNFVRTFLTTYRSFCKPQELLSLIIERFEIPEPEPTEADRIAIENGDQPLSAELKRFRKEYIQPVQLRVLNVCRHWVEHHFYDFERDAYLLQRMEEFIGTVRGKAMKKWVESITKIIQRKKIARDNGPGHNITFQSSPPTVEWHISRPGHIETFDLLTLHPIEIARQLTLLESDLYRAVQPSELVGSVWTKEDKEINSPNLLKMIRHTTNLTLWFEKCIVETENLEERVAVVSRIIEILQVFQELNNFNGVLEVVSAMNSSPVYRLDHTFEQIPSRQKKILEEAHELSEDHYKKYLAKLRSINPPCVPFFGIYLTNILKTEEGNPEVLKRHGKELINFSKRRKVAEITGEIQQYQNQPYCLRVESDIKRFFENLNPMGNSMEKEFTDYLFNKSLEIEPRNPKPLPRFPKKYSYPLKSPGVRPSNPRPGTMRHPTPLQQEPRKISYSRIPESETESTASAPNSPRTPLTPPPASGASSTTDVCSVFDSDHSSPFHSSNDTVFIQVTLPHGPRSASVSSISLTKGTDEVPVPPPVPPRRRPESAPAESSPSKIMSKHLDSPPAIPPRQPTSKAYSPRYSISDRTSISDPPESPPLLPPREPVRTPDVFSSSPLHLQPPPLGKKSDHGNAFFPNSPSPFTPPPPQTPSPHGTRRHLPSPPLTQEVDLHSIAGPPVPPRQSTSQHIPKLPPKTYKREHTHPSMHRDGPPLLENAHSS

[2] = biological target: T1, von Hippel-Lindau disease tumor suppressor/Son of sevenless homolog 1; experiment: Protac activity at VHL/SOS1 in human NCI-H358 cells assessed as SOS1 protein degradation at 1 uM incubated for 24 hr by Western blot analysis relative to control; assay type: cell-based
Target sequence in this assay (P40337 whole entry, looked up): as the sequence (P40337 whole entry, looked up) above
Target sequence in this assay (Q07889 whole entry, looked up): as the sequence (Q07889 whole entry, looked up) above

[3] = biological target: T1, von Hippel-Lindau disease tumor suppressor/Son of sevenless homolog 1; experiment: Protac activity at VHL/SOS1 in human NCI-H358 cells assessed as SOS1 protein degradation incubated for 24 hr by Western blot analysis; assay type: cell-based
Target sequence in this assay (Q07889 whole entry): as the sequence (Q07889 whole entry, looked up) above
Target sequence in this assay (P40337 whole entry): as the sequence (P40337 whole entry, looked up) above

NCI-H358 = experiment: Effect of compound on human NCI-H358 cells assessed as increase in phophorylated ERK level incubated for 24 hr by Western blot analysis; assay type: functional, cell-based

SMILES	Activity [1]	Activity [2]	DC50 [3]	Activity (NCI-H358)
Cc1cc(Cn2c(N3CC4(CNC4)C3)nc3c(N4CCN(CCCCCCCCCCCC(=O)N[C@H](C(=O)N5C[C@H](O)C[C@H]5C(=O)N[C@@H](C)c5ccc(-c6scnc6C)cc5)C(C)(C)C)CC4)cc(Cl)cc32)cc(C)c1F	33%	49%		
Cc1cc(Cn2c(N3CC4(CNC4)C3)nc3c(N4CCN(CC5CCN(CC(=O)N[C@H](C(=O)N6C[C@H](O)C[C@H]6C(=O)N[C@@H](C)c6ccc(-c7scnc7C)cc6)C(C)(C)C)CC5)CC4)cc(Cl)cc32)cc(C)c1F	13%	43.3%		
Cc1cc(Cn2c(N3CC4(CNC4)C3)nc3c(N4CCN(CCOCCOCCOCCC(=O)N[C@H](C(=O)N5C[C@H](O)C[C@H]5C(=O)N[C@@H](C)c5ccc(-c6scnc6C)cc5)C(C)(C)C)CC4)cc(Cl)cc32)cc(C)c1F	15.4%	36.6%		
Cc1cc(Cn2c(N3CC4(CNC4)C3)nc3c(N4CCN(CC5CCN(CCCC(=O)N[C@H](C(=O)N6C[C@H](O)C[C@H]6C(=O)N[C@@H](C)c6ccc(-c7scnc7C)cc6)C(C)(C)C)CC5)CC4)cc(Cl)cc32)cc(C)c1F	7%	11.2%		
Cc1cc(Cn2c(N3CC4(CNC4)C3)nc3c(N4CCN(CCCCCCCCCCC(=O)N[C@H](C(=O)N5C[C@H](O)C[C@H]5C(=O)N[C@@H](C)c5ccc(-c6scnc6C)cc5)C(C)(C)C)CC4)cc(Cl)cc32)cc(C)c1F	31.7%	63.2%		
Cc1cc(Cn2c(N3CC4(CNC4)C3)nc3c(N4CCN(CCCCCCC(=O)N[C@H](C(=O)N5C[C@H](O)C[C@H]5C(=O)N[C@@H](C)c5ccc(-c6scnc6C)cc5)C(C)(C)C)CC4)cc(Cl)cc32)cc(C)c1F	30.7%	79.9%	216 nM	
Cc1cc(Cn2c(N3CC4(CNC4)C3)nc3c(N4CCN(C)CC4)cc(Cl)cc32)cc(C)c1F				Active
Cc1cc(Cn2c(N3CC4(CNC4)C3)nc3c(N4CCN(CCCCCCCCC(=O)N[C@H](C(=O)N5C[C@@H](O)C[C@H]5C(=O)N[C@@H](C)c5ccc(-c6scnc6C)cc5)C(C)(C)C)CC4)cc(Cl)cc32)cc(C)c1F				Active
Cc1cc(Cn2c(N3CC4(CNC4)C3)nc3c(N4CCN(CCCCC(=O)NCCCC(=O)N[C@H](C(=O)N5C[C@H](O)C[C@H]5C(=O)N[C@@H](C)c5ccc(-c6scnc6C)cc5)C(C)(C)C)CC4)cc(Cl)cc32)cc(C)c1F	3.2%	0%		

Now from value to compound, other results behind:

Activity [1]	Activity [2]	DC50 [3]	SMILES	Activity (NCI-H358)
18.1%	9.4%		Cc1cc(Cn2c(N3CC4(CNC4)C3)nc3c(N4CCN(CC5CCN(CCC(=O)N[C@H](C(=O)N6C[C@H](O)C[C@H]6C(=O)N[C@@H](C)c6ccc(-c7scnc7C)cc6)C(C)(C)C)CC5)CC4)cc(Cl)cc32)cc(C)c1F	
23.3%	24.4%		Cc1cc(Cn2c(N3CC4(CNC4)C3)nc3c(N4CCN(CCOCCOCC(=O)N[C@H](C(=O)N5C[C@H](O)C[C@H]5C(=O)N[C@@H](C)c5ccc(-c6scnc6C)cc5)C(C)(C)C)CC4)cc(Cl)cc32)cc(C)c1F	
27.6%	80.9%	150 nM	Cc1cc(Cn2c(N3CC4(CNC4)C3)nc3c(N4CCN(CCCCCCCC(=O)N[C@H](C(=O)N5C[C@H](O)C[C@H]5C(=O)N[C@@H](C)c5ccc(-c6scnc6C)cc5)C(C)(C)C)CC4)cc(Cl)cc32)cc(C)c1F	
4.4%	14%		Cc1cc(Cn2c(N3CC4(CNC4)C3)nc3c(N4CCN(CCOCCOCCC(=O)N[C@H](C(=O)N5C[C@H](O)C[C@H]5C(=O)N[C@@H](C)c5ccc(-c6scnc6C)cc5)C(C)(C)C)CC4)cc(Cl)cc32)cc(C)c1F	
5.8%	30.4%		Cc1cc(Cn2c(N3CC4(CNC4)C3)nc3c(N4CCN(CCCCCC(=O)N[C@H](C(=O)N5C[C@H](O)C[C@H]5C(=O)N[C@@H](C)c5ccc(-c6scnc6C)cc5)C(C)(C)C)CC4)cc(Cl)cc32)cc(C)c1F	
0%	18.3%		Cc1cc(Cn2c(N3CC4(CNC4)C3)nc3c(N4CCN(CCC(=O)NCCCC(=O)N[C@H](C(=O)N5C[C@H](O)C[C@H]5C(=O)N[C@@H](C)c5ccc(-c6scnc6C)cc5)C(C)(C)C)CC4)cc(Cl)cc32)cc(C)c1F	
38.5%	82%	182 nM	Cc1cc(Cn2c(N3CC4(CNC4)C3)nc3c(N4CCN(CCCCCCCCCC(=O)N[C@H](C(=O)N5C[C@H](O)C[C@H]5C(=O)N[C@@H](C)c5ccc(-c6scnc6C)cc5)C(C)(C)C)CC4)cc(Cl)cc32)cc(C)c1F	
8%	12.7%		Cc1cc(Cn2c(N3CC4(CNC4)C3)nc3c(N4CCN(CCCC(=O)NCCCC(=O)N[C@H](C(=O)N5C[C@H](O)C[C@H]5C(=O)N[C@@H](C)c5ccc(-c6scnc6C)cc5)C(C)(C)C)CC4)cc(Cl)cc32)cc(C)c1F	
